Results as given in patent US8017612B2, “Piperazine compound and use thereof as a HCV polymerase inhibitor” (priority 2006, dated 2011).

Assays:
[1] = target: T1, HCV polymerase (NS5B) type 1a (Hepatitis C virus genotype 1a, UniProt P26664); experiment: Assay of enzyme (HCV polymerase) inhibitory activity, type 1a enzyme; format: biochemical, HCV type 1a (cloned from the blood of patients); details: HCV polymerase inhibitory activity (IC50), 1a, type 1a enzyme 1.5 μg/ml, 25° C., 60 min
T1 construct: made in house; host or cells: Escherichia coli (by the 'similar method' of the 1b enzyme)
In short: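 IC50 values derive from radioactivity of newly synthesized RNA with versus without test compound. The enzyme was C-terminally truncated type 1a NS5B, 1.5 μg/ml, run 60 min at 25° C with 3H-UTP-labelled nucleotides.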

[2] = target: T2, HCV polymerase (NS5B) type 1b (Hepatitis C virus genotype 1b, UniProt P26663); experiment: Assay of enzyme (HCV polymerase) inhibitory activity, type 1b enzyme; format: biochemical, HCV BK strain (type 1b); details: HCV polymerase inhibitory activity (IC50), 1b, type 1b enzyme 0.5 μg/ml, 25° C., 60 min
T2 construct: a region encoding NS5B (J Virol 1991 March, 65(3), 1105-13, 544 amino acids after deletion of 47 amino acids on the C-terminal); 6xHis (C); made in house; host or cells: Escherichia coli
In short: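 Polymerase activity was followed as radiolabelled UTP incorporation by E. coli-expressed, His-tagged NS5B of HCV type 1b lacking its last 47 residues. Conditions: 2 μM UTP, 50 μM other NTPs, Mg2+ buffer at pH 7.5, 25 °C for 60 min. Inhibition relative to compound-free reactions gave IC50.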

Compound	IC50 [1]	IC50 [2]
CC(=O)N1CCN(S(=O)(=O)c2ccc(C(C)C)cc2)[C@@H](C(=O)NCCc2ccc(C(=O)O)cc2)C1 [Example 393, 4-(2-{[(R)-4-acetyl-1-(4-isopropyl-benzenesulfonyl)-piperazine-2-carbonyl]-amino}-ethyl)-benzoic acid]	> 1000 nM	> 1000 nM
CCCc1ccc(S(=O)(=O)N2CCN(c3nc(COC)c(C(=O)O)s3)C[C@@H]2C(=O)NCc2ccc(C(C)C)cc2)cc1 [Example 394, 2-[(R)-3-(4-isopropyl-benzylcarbamoyl)-4-(4-propyl-benzenesulfonyl)-piperazin-1-yl]-4-methoxymethyl-thiazole-5-carboxylic acid]	< 100 nM	< 100 nM
CC(=O)N1CCN(S(=O)(=O)c2ccc(C(C)C)cc2)[C@@H](C(=O)NCCc2ccncc2)C1 [Example 395, (R)-4-acetyl-1-(4-isopropyl-benzenesulfonyl)-piperazine-2-carboxylic acid (2-pyridin-4-yl-ethyl)-amide]	> 1000 nM	> 1000 nM
CC(=O)N1CCN(S(=O)(=O)c2ccc(C(C)C)cc2)[C@@H](C(=O)NCCc2ccccn2)C1 [Example 396, (R)-4-acetyl-1-(4-isopropyl-benzenesulfonyl)-piperazine-2-carboxylic acid (2-pyridin-2-yl-ethyl)-amide]	> 1000 nM	> 1000 nM
CC(=O)N1CCN(S(=O)(=O)c2ccc(C(C)C)cc2)[C@@H](C(=O)NCCc2cccnc2)C1 [Example 397, (R)-4-acetyl-1-(4-isopropyl-benzenesulfonyl)-piperazine-2-carboxylic acid (2-pyridin-3-yl-ethyl)-amide]	> 1000 nM	> 1000 nM
Cc1nc(N2CCN(S(=O)(=O)c3ccc(OC(F)(F)F)cc3)[C@@H](C(=O)NCc3ccc(N4CCC4)cc3)C2)sc1C(=O)O [Example 398, 2-[(R)-3-(4-azetidin-1-yl-benzylcarbamoyl)-4-(4-trifluoromethoxy-benzenesulfonyl)-piperazin-1-yl]-4-methyl-thiazole-5-carboxylic acid]	100 to 1000 nM	< 100 nM
CN(C)c1ccc(CNC(=O)[C@H]2CN(c3cnc(C(=O)O)cn3)CCN2S(=O)(=O)c2ccc(OC(F)(F)F)cc2)cc1 [Example 399, (R)-3-(4-dimethylamino-benzylcarbamoyl)-4-(4-trifluoromethoxy-benzenesulfonyl)-3,4,5,6-tetrahydro-2H-[1,2′]bipyrazinyl-5′-carboxylic acid]	< 100 nM	< 100 nM
CC(=O)N1CCN(S(=O)(=O)c2ccc(C3CC3)cc2)[C@@H](C(=O)NCc2ccc(C(C)C)cc2)C1 [Example 400, (R)-4-acetyl-1-(4-cyclopropyl-benzenesulfonyl)-piperazine-2-carboxylic acid 4-isopropyl-benzylamide]	< 100 nM	< 100 nM
Cc1nc(N2CCN(S(=O)(=O)c3ccc(OC(F)(F)F)cc3)[C@@H](C(=O)NCc3ccccc3)C2)sc1C(=O)O [Example 401, 2-[(R)-3-benzylcarbamoyl-4-(4-trifluoromethoxy-benzenesulfonyl)-piperazin-1-yl]-4-methyl-thiazole-5-carboxylic acid]	> 1000 nM	100 to 1000 nM
CC(=O)N1CCN(S(=O)(=O)c2ccc(C(C)C)cc2)[C@@H](C(=O)NCCN2CCCCC2)C1 [Example 402, (R)-4-acetyl-1-(4-isopropyl-benzenesulfonyl)-piperazine-2-carboxylic acid (2-piperidin-1-yl-ethyl)-amide]	> 1000 nM	> 1000 nM
CC(=O)N1CCN(S(=O)(=O)c2ccc(C(C)C)cc2)[C@@H](C(=O)NCCN2CCOCC2)C1 [Example 403, (R)-4-acetyl-1-(4-isopropyl-benzenesulfonyl)-piperazine-2-carboxylic acid (2-morpholin-4-yl-ethyl)-amide]	> 1000 nM	> 1000 nM
